Experimental data reported in PubChem BioAssay (NCI).
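How tested: cells in 96-well plates exposed to compound for 48 hours at five concentrations. Abbreviation: GI50, concentration required for 50% inhibition of growth. TGI: concentration producing complete growth inhibition.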

Columns and labels:
Assay in all cases: growth of human tumour cells (NCI), 48 h
A498 renal = test system: A498 renal
A549 NSCLC = test system: A549 NSCLC
ACHN renal = test system: ACHN renal
BT-549 breast = test system: BT-549 breast
CCRF-CEM leukemia = test system: CCRF-CEM leukemia
COLO 205 colon = test system: COLO 205 colon
EKVX NSCLC = test system: EKVX NSCLC
HOP-92 NSCLC = test system: HOP-92 NSCLC
HS 578T breast = test system: HS 578T breast
HT29 colon = test system: HT29 colon
K-562 leukemia = test system: K-562 leukemia
MDA-MB-231 breast = test system: MDA-MB-231 breast
MDA-MB-435 = test system: MDA-MB-435
MOLT-4 leukemia = test system: MOLT-4 leukemia
NCI-H460 lung = test system: NCI-H460 lung
NCI/ADR-RES ovarian = test system: NCI/ADR-RES ovarian
OVCAR-4 ovarian = test system: OVCAR-4 ovarian
RPMI-8226 leukemia = test system: RPMI-8226 leukemia
SNB-75 CNS = test system: SNB-75 CNS
T-47D breast = test system: T-47D breast
TK-10 renal = test system: TK-10 renal
UACC-257 melanoma = test system: UACC-257 melanoma
UO-31 renal = test system: UO-31 renal
DU-145 prostate = test system: DU-145 prostate
MALME-3M melanoma = test system: MALME-3M melanoma
OVCAR-5 ovarian = test system: OVCAR-5 ovarian
SK-MEL-5 melanoma = test system: SK-MEL-5 melanoma
SN12C renal = test system: SN12C renal
SW-620 colon = test system: SW-620 colon
UACC-62 melanoma = test system: UACC-62 melanoma
HOP-62 NSCLC = test system: HOP-62 NSCLC
MCF7 breast = test system: MCF7 breast
NCI-H226 lung = test system: NCI-H226 lung
OVCAR-8 ovarian = test system: OVCAR-8 ovarian
SF-268 CNS = test system: SF-268 CNS
SK-MEL-2 melanoma = test system: SK-MEL-2 melanoma
SR leukemia = test system: SR leukemia
HCC-2998 colon = test system: HCC-2998 colon
HL-60(TB) leukemia = test system: HL-60(TB) leukemia
OVCAR-3 ovarian = test system: OVCAR-3 ovarian
PC-3 prostate = test system: PC-3 prostate
RXF 393 renal = test system: RXF 393 renal
SF-295 CNS = test system: SF-295 CNS
SF-539 CNS = test system: SF-539 CNS
SK-MEL-28 melanoma = test system: SK-MEL-28 melanoma
SK-OV-3 ovarian = test system: SK-OV-3 ovarian

`N#Cc1ccc(CSc2ncnc3nc[nH]c23)cc1` gave a GI50 (A498 renal) of 80000 nM, a GI50 (A549 NSCLC) of 92400 nM and a GI50 (ACHN renal) of 38400 nM. The GI50 (BT-549 breast) was 95000 nM, the GI50 (CCRF-CEM leukemia) was 95100 nM and the GI50 (COLO 205 colon) was 52200 nM. For the same molecule, the GI50 (EKVX NSCLC) was 90100 nM, the GI50 (HOP-92 NSCLC) was 15800 nM and the TGI (HOP-92 NSCLC) was 79500 nM. It also gave a GI50 (HS 578T breast) of 72000 nM, a GI50 (HT29 colon) of 77300 nM and a GI50 (K-562 leukemia) of 63700 nM. It also gave a GI50 (MDA-MB-231 breast) of 94400 nM, a GI50 (MDA-MB-435) of 79000 nM and a GI50 (MOLT-4 leukemia) of 92800 nM. The GI50 (NCI-H460 lung) was 43000 nM, the GI50 (NCI/ADR-RES ovarian) was 54300 nM and the GI50 (OVCAR-4 ovarian) was 97400 nM. The GI50 (RPMI-8226 leukemia) was 54900 nM, the GI50 (SNB-75 CNS) was 6860 nM and the TGI (SNB-75 CNS) was 66300 nM. It also gave a GI50 (T-47D breast) of 80700 nM, a GI50 (TK-10 renal) of 37300 nM and a GI50 (UACC-257 melanoma) of 73300 nM. The GI50 (UO-31 renal) was 30700 nM.

With `CCCCNCCC(O)c1cc2ccc(C(F)(F)F)cc2c2cc(C(F)(F)F)ccc12` (configuration not stated) the GI50 (A498 renal) was 1320 nM, the TGI (A498 renal) was 2640 nM and the GI50 (COLO 205 colon) was 339 nM. The TGI (COLO 205 colon) was 1070 nM, the GI50 (DU-145 prostate) was 1870 nM and the TGI (DU-145 prostate) was 3380 nM. It also gave a GI50 (HOP-92 NSCLC) of 1100 nM, a TGI (HOP-92 NSCLC) of 2440 nM and a GI50 (MALME-3M melanoma) of 1960 nM. It also gave a TGI (MALME-3M melanoma) of 3870 nM, a GI50 (OVCAR-5 ovarian) of 1610 nM and a TGI (OVCAR-5 ovarian) of 3130 nM. For the same molecule, the GI50 (RPMI-8226 leukemia) was 2040 nM, the TGI (RPMI-8226 leukemia) was 4630 nM and the GI50 (SK-MEL-5 melanoma) was 1690 nM. It also gave a TGI (SK-MEL-5 melanoma) of 3060 nM, a GI50 (SN12C renal) of 1820 nM and a TGI (SN12C renal) of 3410 nM. The GI50 (SW-620 colon) was 1300 nM, the TGI (SW-620 colon) was 2790 nM and the GI50 (TK-10 renal) was 1880 nM. The TGI (TK-10 renal) was 3390 nM, the GI50 (UACC-257 melanoma) was 1520 nM and the TGI (UACC-257 melanoma) was 3020 nM. For the same molecule, the GI50 (UACC-62 melanoma) was 1780 nM and the TGI (UACC-62 melanoma) was 3350 nM.

`COc1ccc(N2C(=O)/C(=C/C(Cl)=C/c3ccc([N+](=O)[O-])cc3)SC2=S)cc1` was tested, and the GI50 (HOP-62 NSCLC) was 2120 nM, the TGI (HOP-62 NSCLC) was > 100000 nM and the GI50 (HS 578T breast) was 3280 nM. For the same molecule, the TGI (HS 578T breast) was > 37900 nM, the GI50 (K-562 leukemia) was 555 nM and the TGI (K-562 leukemia) was > 100000 nM. The GI50 (MCF7 breast) was 393 nM, the TGI (MCF7 breast) was > 100000 nM and the GI50 (MDA-MB-231 breast) was 1690 nM. For the same molecule, the TGI (MDA-MB-231 breast) was > 100000 nM, the GI50 (MOLT-4 leukemia) was 679 nM and the TGI (MOLT-4 leukemia) was > 100000 nM. For the same molecule, the GI50 (NCI-H226 lung) was 4230 nM, the TGI (NCI-H226 lung) was > 100000 nM and the GI50 (NCI/ADR-RES ovarian) was 562 nM. For the same molecule, the TGI (NCI/ADR-RES ovarian) was > 100000 nM, the GI50 (OVCAR-8 ovarian) was 462 nM and the TGI (OVCAR-8 ovarian) was > 100000 nM. It also gave a GI50 (RPMI-8226 leukemia) of 268 nM, a TGI (RPMI-8226 leukemia) of 727 nM and a GI50 (SF-268 CNS) of 2950 nM. For the same molecule, the TGI (SF-268 CNS) was > 100000 nM, the GI50 (SK-MEL-2 melanoma) was > 21300 nM and the TGI (SK-MEL-2 melanoma) was > 100000 nM. For the same molecule, the GI50 (SR leukemia) was 312 nM, the TGI (SR leukemia) was 22000 nM and the GI50 (T-47D breast) was 725 nM. For the same molecule, the TGI (T-47D breast) was > 100000 nM, the GI50 (TK-10 renal) was 2760 nM and the TGI (TK-10 renal) was > 100000 nM. For the same molecule, the GI50 (UACC-257 melanoma) was 2880 nM and the TGI (UACC-257 melanoma) was > 100000 nM.

Work on `Fc1ccc2[nH]cc(-c3nc(-c4c[nH]c5ccncc45)cs3)c2c1` yielded a GI50 (A498 renal) of 1980 nM, a TGI (A498 renal) of 3430 nM and a GI50 (ACHN renal) of 1610 nM. The TGI (ACHN renal) was 2970 nM, the GI50 (BT-549 breast) was 1650 nM and the TGI (BT-549 breast) was 3070 nM. For the same molecule, the GI50 (CCRF-CEM leukemia) was 1890 nM, the TGI (CCRF-CEM leukemia) was 4650 nM and the GI50 (DU-145 prostate) was 1690 nM. The TGI (DU-145 prostate) was 3100 nM, the GI50 (HCC-2998 colon) was 1920 nM and the TGI (HCC-2998 colon) was 3490 nM. For the same molecule, the GI50 (HL-60(TB) leukemia) was 2070 nM, the TGI (HL-60(TB) leukemia) was 4580 nM and the GI50 (OVCAR-3 ovarian) was 1800 nM. For the same molecule, the TGI (OVCAR-3 ovarian) was 3300 nM, the GI50 (OVCAR-5 ovarian) was 1930 nM and the TGI (OVCAR-5 ovarian) was 3380 nM. For the same molecule, the GI50 (PC-3 prostate) was 1470 nM, the TGI (PC-3 prostate) was 2990 nM and the GI50 (RXF 393 renal) was 1480 nM. The TGI (RXF 393 renal) was 2860 nM, the GI50 (SF-295 CNS) was 1680 nM and the TGI (SF-295 CNS) was 3100 nM. The GI50 (SF-539 CNS) was 1520 nM, the TGI (SF-539 CNS) was 2880 nM and the GI50 (SK-MEL-2 melanoma) was 1910 nM. For the same molecule, the TGI (SK-MEL-2 melanoma) was 3750 nM, the GI50 (SK-MEL-28 melanoma) was 1900 nM and the TGI (SK-MEL-28 melanoma) was 3330 nM. It also gave a GI50 (SK-OV-3 ovarian) of 1650 nM, a TGI (SK-OV-3 ovarian) of 3220 nM and a GI50 (SN12C renal) of 1520 nM. It also gave a TGI (SN12C renal) of 2920 nM, a GI50 (SNB-75 CNS) of 1220 nM and a TGI (SNB-75 CNS) of 2620 nM. For the same molecule, the GI50 (TK-10 renal) was 2300 nM, the TGI (TK-10 renal) was 3910 nM and the GI50 (UACC-257 melanoma) was 1910 nM. The TGI (UACC-257 melanoma) was 3580 nM, the GI50 (UACC-62 melanoma) was 1720 nM and the TGI (UACC-62 melanoma) was 3200 nM. The GI50 (UO-31 renal) was 1330 nM and the TGI (UO-31 renal) was 2610 nM.
